The values below come from paper doi:10.1101/2022.02.23.481604v2 (biorxiv, 2022).

Holding throughout (assay): cAMP formation in membranes
For orientation: Changes in cAMP serve as a functional read-out for many G protein-coupled receptors.

Series [1] deals with mAC3 activated by Gsα (Q227L) (Homo sapiens, UniProt O60266). It counts as biochemical.
Series [2] has as its target mAC6 activated by Gsα (Q227L) (Homo sapiens, UniProt O43306). It counts as biochemical.
Series [3] deals with mAC7 activated by Gsα (Q227L) (Homo sapiens, UniProt P51828). It counts as biochemical.
Series [4] has as its target mAC9 activated by Gsα (Q227L) (Homo sapiens, UniProt O60503). It counts as biochemical.
The target of another series is mAC1 (Homo sapiens, UniProt Q08828). It counts as biochemical.
A further series concerns the target T1, mAC7 (Homo sapiens, UniProt P51828).
T1 sequence (P51828 1-1080): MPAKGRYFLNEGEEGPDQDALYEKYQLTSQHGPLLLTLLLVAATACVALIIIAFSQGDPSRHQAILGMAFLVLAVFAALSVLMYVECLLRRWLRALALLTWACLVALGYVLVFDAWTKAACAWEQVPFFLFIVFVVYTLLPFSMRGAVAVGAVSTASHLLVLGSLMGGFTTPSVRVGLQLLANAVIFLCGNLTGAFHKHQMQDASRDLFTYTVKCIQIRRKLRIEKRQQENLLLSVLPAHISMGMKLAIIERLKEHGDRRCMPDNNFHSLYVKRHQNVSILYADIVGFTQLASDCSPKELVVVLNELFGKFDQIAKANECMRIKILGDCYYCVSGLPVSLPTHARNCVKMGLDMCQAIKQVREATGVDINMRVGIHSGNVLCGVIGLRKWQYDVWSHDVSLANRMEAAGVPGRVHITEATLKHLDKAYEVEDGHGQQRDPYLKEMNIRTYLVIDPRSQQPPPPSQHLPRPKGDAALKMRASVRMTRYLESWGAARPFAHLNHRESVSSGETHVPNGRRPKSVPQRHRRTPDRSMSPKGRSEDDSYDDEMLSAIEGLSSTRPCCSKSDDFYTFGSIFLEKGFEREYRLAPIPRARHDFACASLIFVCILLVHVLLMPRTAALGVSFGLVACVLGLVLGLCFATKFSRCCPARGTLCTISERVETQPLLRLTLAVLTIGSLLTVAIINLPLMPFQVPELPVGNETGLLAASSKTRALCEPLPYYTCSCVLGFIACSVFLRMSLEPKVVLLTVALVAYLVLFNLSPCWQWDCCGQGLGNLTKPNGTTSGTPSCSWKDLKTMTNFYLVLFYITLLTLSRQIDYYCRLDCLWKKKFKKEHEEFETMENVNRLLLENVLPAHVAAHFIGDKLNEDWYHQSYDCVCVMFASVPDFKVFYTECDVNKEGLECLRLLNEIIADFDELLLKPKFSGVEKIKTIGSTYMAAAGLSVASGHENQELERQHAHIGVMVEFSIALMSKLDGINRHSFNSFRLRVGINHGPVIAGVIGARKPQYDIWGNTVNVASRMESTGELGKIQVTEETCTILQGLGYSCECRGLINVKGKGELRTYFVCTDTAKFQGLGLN
The format is biochemical.

Substrate in series [5]: Nc1ncnc2c1ncn2[C@@H]1O[C@H](COP(=O)(O)OP(=O)(O)OP(=O)(O)O)[C@@H](O)[C@H]1O
The format is biochemical, Homo sapiens. To be noted: without SDPA, Gsα presence inferred from Vmax, Mg2+, pH 7.5.

Structures can show the parent of a compound that is named as a salt.

Sequence of mAC3 activated by Gsα (Q227L) (P63092 2-394 Q227L partner, one chain of several): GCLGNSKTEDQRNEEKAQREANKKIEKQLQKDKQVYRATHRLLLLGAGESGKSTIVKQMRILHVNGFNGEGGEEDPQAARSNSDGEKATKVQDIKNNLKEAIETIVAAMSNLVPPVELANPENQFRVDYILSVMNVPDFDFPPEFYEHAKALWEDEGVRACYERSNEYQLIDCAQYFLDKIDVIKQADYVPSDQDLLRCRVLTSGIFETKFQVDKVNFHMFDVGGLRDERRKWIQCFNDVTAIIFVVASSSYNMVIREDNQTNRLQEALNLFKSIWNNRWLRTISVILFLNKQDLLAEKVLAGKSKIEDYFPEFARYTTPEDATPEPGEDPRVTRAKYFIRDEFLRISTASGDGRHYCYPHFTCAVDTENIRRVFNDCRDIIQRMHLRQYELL
Sequence of mAC9 activated by Gsα (Q227L) (O60503 whole entry, stated change not applied): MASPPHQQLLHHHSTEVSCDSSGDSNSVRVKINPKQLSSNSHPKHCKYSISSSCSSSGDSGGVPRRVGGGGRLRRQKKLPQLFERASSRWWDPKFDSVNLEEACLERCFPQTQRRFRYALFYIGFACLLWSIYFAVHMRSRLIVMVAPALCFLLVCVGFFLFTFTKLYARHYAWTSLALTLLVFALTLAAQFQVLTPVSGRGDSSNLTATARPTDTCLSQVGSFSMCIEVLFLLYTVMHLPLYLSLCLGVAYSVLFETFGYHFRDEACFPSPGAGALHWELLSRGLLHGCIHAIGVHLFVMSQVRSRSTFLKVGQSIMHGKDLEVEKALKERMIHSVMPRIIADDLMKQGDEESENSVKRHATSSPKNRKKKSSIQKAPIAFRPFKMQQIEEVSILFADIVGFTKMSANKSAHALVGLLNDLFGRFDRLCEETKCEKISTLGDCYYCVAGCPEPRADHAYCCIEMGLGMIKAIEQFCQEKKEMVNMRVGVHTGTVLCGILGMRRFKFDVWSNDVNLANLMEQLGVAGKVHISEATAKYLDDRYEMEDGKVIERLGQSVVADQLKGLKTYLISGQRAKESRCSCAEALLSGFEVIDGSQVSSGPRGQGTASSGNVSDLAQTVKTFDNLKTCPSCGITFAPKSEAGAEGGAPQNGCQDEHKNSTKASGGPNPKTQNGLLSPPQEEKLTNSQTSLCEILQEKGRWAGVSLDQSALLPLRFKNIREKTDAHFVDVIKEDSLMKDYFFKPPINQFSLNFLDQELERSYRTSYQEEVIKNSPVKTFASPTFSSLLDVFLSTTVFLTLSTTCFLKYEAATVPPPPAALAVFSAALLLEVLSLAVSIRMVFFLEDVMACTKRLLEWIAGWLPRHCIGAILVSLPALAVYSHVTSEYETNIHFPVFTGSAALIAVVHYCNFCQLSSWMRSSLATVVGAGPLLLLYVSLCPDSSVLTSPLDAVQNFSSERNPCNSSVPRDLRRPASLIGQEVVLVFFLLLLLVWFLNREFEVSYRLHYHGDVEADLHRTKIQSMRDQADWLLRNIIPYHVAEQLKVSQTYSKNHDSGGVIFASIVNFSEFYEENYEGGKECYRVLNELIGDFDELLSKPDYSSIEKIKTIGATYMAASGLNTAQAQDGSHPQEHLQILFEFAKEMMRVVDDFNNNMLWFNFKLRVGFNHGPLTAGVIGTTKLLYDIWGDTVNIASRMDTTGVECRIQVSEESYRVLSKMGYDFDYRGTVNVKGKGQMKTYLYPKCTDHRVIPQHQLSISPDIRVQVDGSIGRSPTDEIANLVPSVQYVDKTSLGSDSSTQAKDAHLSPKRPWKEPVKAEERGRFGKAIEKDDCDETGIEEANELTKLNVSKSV
Sequence of mAC9 activated by Gsα (Q227L) (P63092 2-394 Q227L partner): as the sequence (P63092 2-394 Q227L partner, one chain of several) above
Sequence of mAC7 activated by Gsα (Q227L) (P63092 2-394 Q227L partner, one chain of several): as above
Sequence of mAC6 activated by Gsα (Q227L) (O43306 whole entry, stated change not applied): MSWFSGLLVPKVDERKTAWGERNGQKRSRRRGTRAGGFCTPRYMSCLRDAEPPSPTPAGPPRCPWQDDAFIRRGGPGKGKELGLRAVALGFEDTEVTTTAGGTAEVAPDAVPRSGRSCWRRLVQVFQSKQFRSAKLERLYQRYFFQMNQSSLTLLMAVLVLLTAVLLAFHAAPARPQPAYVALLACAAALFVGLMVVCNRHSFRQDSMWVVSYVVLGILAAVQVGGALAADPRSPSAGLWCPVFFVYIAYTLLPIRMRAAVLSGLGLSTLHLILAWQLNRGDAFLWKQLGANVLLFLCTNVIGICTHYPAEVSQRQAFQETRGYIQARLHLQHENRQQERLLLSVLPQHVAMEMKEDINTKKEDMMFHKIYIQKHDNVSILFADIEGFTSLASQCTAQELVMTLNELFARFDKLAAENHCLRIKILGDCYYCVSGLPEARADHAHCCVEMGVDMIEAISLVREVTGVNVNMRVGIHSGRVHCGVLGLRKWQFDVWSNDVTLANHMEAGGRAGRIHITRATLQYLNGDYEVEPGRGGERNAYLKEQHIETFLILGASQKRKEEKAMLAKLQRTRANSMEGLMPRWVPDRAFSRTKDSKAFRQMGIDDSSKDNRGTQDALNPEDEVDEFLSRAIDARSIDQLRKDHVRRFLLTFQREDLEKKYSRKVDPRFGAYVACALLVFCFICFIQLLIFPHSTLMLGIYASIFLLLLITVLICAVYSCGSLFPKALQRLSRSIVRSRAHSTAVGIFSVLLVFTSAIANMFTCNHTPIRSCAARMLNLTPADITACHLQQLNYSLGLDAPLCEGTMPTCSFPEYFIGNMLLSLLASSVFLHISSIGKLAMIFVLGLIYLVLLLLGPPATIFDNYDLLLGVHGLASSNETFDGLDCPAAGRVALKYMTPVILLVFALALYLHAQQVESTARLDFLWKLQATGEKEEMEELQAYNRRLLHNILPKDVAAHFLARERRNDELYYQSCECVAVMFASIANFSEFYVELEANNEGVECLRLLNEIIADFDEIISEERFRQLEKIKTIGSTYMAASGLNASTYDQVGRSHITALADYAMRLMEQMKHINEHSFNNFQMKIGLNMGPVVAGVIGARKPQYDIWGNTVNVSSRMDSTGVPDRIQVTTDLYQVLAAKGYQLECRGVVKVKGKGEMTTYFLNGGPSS
Sequence of mAC6 activated by Gsα (Q227L) (P63092 2-394 Q227L partner): as the sequence (P63092 2-394 Q227L partner, one chain of several) above
Sequence of mAC1 (Q08828 whole entry): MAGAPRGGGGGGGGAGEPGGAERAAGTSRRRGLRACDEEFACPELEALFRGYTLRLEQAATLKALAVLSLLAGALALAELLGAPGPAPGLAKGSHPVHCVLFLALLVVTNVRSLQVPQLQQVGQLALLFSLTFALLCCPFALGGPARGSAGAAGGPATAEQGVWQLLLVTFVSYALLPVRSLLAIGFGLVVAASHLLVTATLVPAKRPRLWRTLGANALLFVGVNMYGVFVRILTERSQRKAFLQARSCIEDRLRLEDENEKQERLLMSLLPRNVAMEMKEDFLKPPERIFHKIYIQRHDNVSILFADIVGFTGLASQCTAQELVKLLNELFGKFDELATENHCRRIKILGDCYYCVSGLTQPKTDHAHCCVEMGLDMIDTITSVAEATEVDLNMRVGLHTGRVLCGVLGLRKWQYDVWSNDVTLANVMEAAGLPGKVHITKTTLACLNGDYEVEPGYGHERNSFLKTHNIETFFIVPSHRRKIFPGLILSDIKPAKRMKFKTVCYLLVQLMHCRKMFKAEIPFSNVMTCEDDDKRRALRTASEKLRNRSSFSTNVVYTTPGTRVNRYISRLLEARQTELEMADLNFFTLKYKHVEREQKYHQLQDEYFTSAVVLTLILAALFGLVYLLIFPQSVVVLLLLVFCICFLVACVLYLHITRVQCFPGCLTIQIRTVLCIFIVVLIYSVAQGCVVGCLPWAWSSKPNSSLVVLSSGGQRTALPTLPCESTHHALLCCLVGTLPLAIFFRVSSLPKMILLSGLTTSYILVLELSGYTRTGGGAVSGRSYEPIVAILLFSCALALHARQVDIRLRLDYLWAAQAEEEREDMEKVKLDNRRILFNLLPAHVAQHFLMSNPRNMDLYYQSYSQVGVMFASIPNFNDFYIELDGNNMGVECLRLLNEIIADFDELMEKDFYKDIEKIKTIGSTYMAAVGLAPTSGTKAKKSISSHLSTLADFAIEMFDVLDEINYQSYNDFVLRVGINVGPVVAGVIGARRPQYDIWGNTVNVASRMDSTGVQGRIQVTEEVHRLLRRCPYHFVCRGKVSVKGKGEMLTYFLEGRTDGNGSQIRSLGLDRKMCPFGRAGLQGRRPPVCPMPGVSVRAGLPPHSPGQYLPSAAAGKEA

For `CC/C=C\C/C=C\C/C=C\C/C=C\C/C=C\C/C=C\CCC(=O)OC[C@H](COP(=O)(O)O)OC(=O)CC/C=C\C/C=C\C/C=C\C/C=C\C/C=C\C/C=C\CC` [DDPA, 1,2-didocosahexaenoyl-sn-glycero-3-phosphate (sodium salt)], a half-maximal effect in series [1] (EC50) was put at 1400 nM. Regarding `CC/C=C\C/C=C\C/C=C\C/C=C\C/C=C\C/C=C\CCC(=O)O[C@H](COC(=O)CCCCCCCCCCCCCCC)COP(=O)(O)O` [PDPA, 1-palmitoyl-2-docosahexaenoyl-sn-glycero-3-phosphate (sodium salt)], the EC50 – broadly, the concentration at which the effect is half-maximal – in series [1] is 1300 nM. Molecule `CCCCC/C=C\C/C=C\C/C=C\C/C=C\CCCC(=O)O[C@H](COC(=O)CCCCCCCCCCCCCCCCC)COP(=O)(O)O` [SAPA, 1-stearoyl-2-arachidonoyl-sn-glycero-3-phosphate (sodium salt)] showed an EC50 in series [1] of 4800 nM. As to `CC/C=C\C/C=C\C/C=C\C/C=C\C/C=C\C/C=C\CCC(=O)O[C@H](COC(=O)CCCCCCCCCCCCCCCCC)COP(=O)(O)O` [SDPA, 1-stearoyl-2-docosahexaenoyl-sn-glycero-3-phosphate (sodium salt)], the EC50 in series [2] amounted to 700 nM; in series [3], 700 nM; in series [4] it was 700 nM; in series [1] it was 900 nM. Regarding `CC/C=C\C/C=C\C/C=C\C/C=C\C/C=C\C/C=C\CCC(=O)O[C@H](COC(=O)CCCCCCCCCCCCCCCCC)COP(=O)(O)OC[C@H](N)C(=O)O` [SDPS, 1-stearoyl-2-docosahexaenoyl-sn-glycero-3-phospho-L-serine], the response in series [1] was half-maximal at 1200 nM (EC50).

Consider `C=C[C@@]1(C)CC(=O)[C@]2(O)[C@@]3(C)[C@@H](O)CCC(C)(C)[C@@H]3[C@H](O)[C@H](OC(C)=O)[C@@]2(C)O1` [forskolin], for which the values for the 50% effective concentration (EC50) on mAC1 and on mAC7 were 2000 nM and 512000 nM, respectively.

B1: mAC3 activated by Gsα (Q227L) (Homo sapiens) (protein)
chain: MPRNQGFSEPEYSAEYSAEYSVSLPSDPDRGVGRTHEISVRNSGSCLCLPRFMRLTFVPESLENLYQTYFKRQRHETLLVLVVFAALFDCYVVVMCAVVFSSDKLASLAVAGIGLVLDIILFVLCKKGLLPDRVTRRVLPYVLWLLITAQIFSYLGLNFARAHAASDTVGWQVFFVFSFFITLPLSLSPIVIISVVSCVVHTLVLGVTVAQQQQEELKGMQLLREILANVFLYLCAIAVGIMSYYMADRKHRKAFLEARQSLEVKMNLEEQSQQQENLMLSILPKHVADEMLKDMKKDESQKDQQQFNTMYMYRHENVSILFADIVGFTQLSSACSAQELVKLLNELFARFDKLAAKYHQLRIKILGDCYYCICGLPDYREDHAVCSILMGLAMVEAISYVREKTKTGVDMRVGVHTGTVLGGVLGQKRWQYDVWSTDVTVANKMEAGGIPGRVHISQSTMDCLKGEFDVEPGDGGSRCDYLEEKGIETYLIIASKPEVKKTATQNGLNGSALPNGAPASSKSSSPALIETKEPNGSAHSSGSTSEKPEEQDAQADNPSFPNPRRRLRLQDLADRVVDASEDEHELNQLLNEALLERESAQVVKKRNTFLLSMRFMDPEMETRYSVEKEKQSGAAFSCSCVVLLCTALVEILIDPWLMTNYVTFMVGEILLLILTICSLAAIFPRAFPKKLVAFSTWIDRTRWARNTWAMLAIFILVMANVVDMLSCLQYYTGPSNATAGMETEGSCLENPKYYNYVAVLSLIATIMLVQVSHMVKLTLMLLVAGAVATINLYAWRPVFDEYDHKRFREHDLPMVALEQMQGFNPGLNGTDRLPLVPSKYSMTVMVFLMMLSFYYFSRHVEKLARTLFLWKIEVHDQKERVYEMRRWNEALVTNMLPEHVARHFLGSKKRDEELYSQTYDEIGVMFASLPNFADFYTEESINNGGIECLRFLNEIISDFDSLLDNPKFRVITKIKTIGSTYMAASGVTPDVNTNGFASSNKEDKSERERWQHLADLADFALAMKDTLTNINNQSFNNFMLRIGMNKGGVLAGVIGARKPHYDIWGNTVNVASRMESTGVMGNIQVVEETQVILREYGFRFVRRGPIFVKGKGELLTFFLKGRDKLATFPNGPSVTLPHQVVDNS
In the case of B1, the Km (usually the concentration of substrate that gives half-maximal velocity) in series [5] was determined as 100 µM.
